Data reported in US12187709B2 (Genentech, Inc., priority 2021, dated 2025).

Experiments:
[1] = target: Human Cbl-b (residues 40-426) (Homo sapiens (Human), UniProt Q13191); experiment: Cbl-b SPR assay; type: binding; conditions: for Fold of selectivity: C-cbl SPR Kd vs Cbl-b SPR Kd; for Kd: SPR, 20° C.
Summary of the method: (§1)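 Values derive from a 1:1 model fitted to multicycle kinetics on captured protein (1300-1500 RU), using six 2-fold concentrations, 60 s contact and dissociation of 120-1200 s. In the chaser format, kd comes from a single-exponential fit of % site occupancy over time.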

Cbl-b = Cbl-b (Homo sapiens (Human), UniProt Q13191); experiment: Cbl-b LCK Ub TR-FRET assay (Cbl-b Lck HTRF); type: biochemical; conditions: for IC50: Cbl-b LCK Ub TR-FRET; for fold-selectivity (Cbl-b over C-cbl) / (fold-selectivity) Cbl-b and C-Cbl Selectivity: ratio C-cbl Lck HTRF IC50 / Cbl-b Lck HTRF IC50
Cbl-b, sequence (Q13191 40-426): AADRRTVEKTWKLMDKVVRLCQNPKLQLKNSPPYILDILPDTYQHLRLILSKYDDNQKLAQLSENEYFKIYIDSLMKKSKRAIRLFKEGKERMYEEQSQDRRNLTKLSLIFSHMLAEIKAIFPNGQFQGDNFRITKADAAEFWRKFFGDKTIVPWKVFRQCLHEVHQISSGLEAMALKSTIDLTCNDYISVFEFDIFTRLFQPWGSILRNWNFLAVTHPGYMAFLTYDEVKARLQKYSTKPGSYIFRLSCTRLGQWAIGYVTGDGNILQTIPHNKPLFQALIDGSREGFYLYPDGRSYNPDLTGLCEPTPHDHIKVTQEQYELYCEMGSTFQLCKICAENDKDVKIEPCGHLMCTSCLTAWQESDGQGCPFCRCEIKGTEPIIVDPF
Summary of the method: (§2)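 Signal is read once the detection mix has stood 20 min at ambient temperature. Curves are anchored by DMSO as maximum and by omission of LCK as minimum.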

c-Cbl (residues 47-435) = c-Cbl (residues 47-435) (Homo sapiens (Human), UniProt P22681); experiment: c-Cbl SPR assay; type: binding; conditions: 20° C.
c-Cbl (residues 47-435), sequence (P22681 47-435): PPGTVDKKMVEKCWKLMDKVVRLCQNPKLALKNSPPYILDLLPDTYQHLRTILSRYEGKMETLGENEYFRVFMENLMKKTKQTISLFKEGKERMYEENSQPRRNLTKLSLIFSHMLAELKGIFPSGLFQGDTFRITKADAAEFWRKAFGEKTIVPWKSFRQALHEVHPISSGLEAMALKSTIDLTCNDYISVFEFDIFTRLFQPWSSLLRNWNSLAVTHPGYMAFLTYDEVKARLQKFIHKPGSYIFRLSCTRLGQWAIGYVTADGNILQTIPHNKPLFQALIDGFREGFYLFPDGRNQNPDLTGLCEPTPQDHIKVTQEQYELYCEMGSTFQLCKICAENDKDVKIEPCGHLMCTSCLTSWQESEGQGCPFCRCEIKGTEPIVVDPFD
Summary of the method: as §1

c-Cbl = c-Cbl (Homo sapiens (Human), UniProt P22681); experiment: C-Cbl LCK Ub TR-FRET assay (C-cbl Lck HTRF); type: biochemical
c-Cbl, sequence (P22681 47-435): as above
Summary of the method: as §2

Human Cbl-b (residues 40-426), sequence (Q13191 40-426): as the sequence (Q13191 40-426) above

SMILES	Fold of selectivity [1]	Kd [1]	IC50 (Cbl-b)	fold-selectivity (Cbl-b over C-cbl) (Cbl-b)	Kd (c-Cbl (residues 47-435))	IC50 (c-Cbl)	IC50 (Cbl-b; Example 121)	(fold-selectivity) Cbl-b and C-Cbl Selectivity (Cbl-b)
CCO[C@H]1C[C@@](c2cccc(N3Cc4c(cc(CNC5(C)CCC5)cc4C(F)(F)F)C3=O)c2)(c2nncn2C)C1 [Compound 178, 2-(3-((1s,3s)-3-ethoxy-1-(4-methyl-4H-1,2,4-triazol-3-yl)cyclobutyl)phenyl)-6-(((1-methylcyclobutyl)amino)methyl)-4-(trifluoromethyl)isoindolin-1-one]	4.6×	5.8 nM	33 nM	2.5x	30 nM	85 nM		
Cn1cnnc1[C@@H](c1cccc(N2Cc3c(cc(CNC4(C)CCC4)cc3C(F)F)C2=O)c1)C1CC(F)C1 (single isomer, unassigned) [Compound 458]	10×	5.7 nM			57 nM	43 nM	14 nM	3.1x
CO[C@H]1C[C@](c2cccc(N3Cc4c(cc(CNC5CC(C)(C)C5)cc4C(F)(F)F)C3=O)c2)(c2nncn2C)C1 [Compound 488, 6-(((3,3-dimethylcyclobutyl)amino)methyl)-2-(3-((1r,3r)-3-methoxy-1-(4-methyl-4H-1,2,4-triazol-3-yl)cyclobutyl)phenyl)-4-(trifluoromethyl)isoindolin-1-one]	13×	1 nM			13 nM	14 nM	5.8 nM	2.4x
Cn1cnnc1[C@H](c1cccc(N2Cc3c(cc([C@H](NC4(C)CCC4)C4CCC4)cc3C(F)(F)F)C2=O)c1)C1COC1 (single isomer, unassigned) [Compound 434]	13×	190 nM			2500 nM	510 nM	160 nM	3.1x
CO[C@H]1C[C@](c2cccc(N3Cc4c(cc(CNC5CC5)cc4C(F)(F)F)C3=O)c2)(c2nncn2C)C1 [Compound 477, 6-((cyclopropylamino)methyl)-2-(3-((1r,3r)-3-methoxy-1-(4-methyl-4H-1,2,4-triazol-3-yl)cyclobutyl)phenyl)-4-(trifluoromethyl)isoindolin-1-one]	11×	11 nM			130 nM	93 nM	17 nM	5.6x
CO[C@H]1C[C@](c2cc(NC3CCCC3)nc(N3Cc4c(cc(CNC5(C)CCC5)cc4C(F)(F)F)C3=O)c2)(c2nncn2C)C1 [Compound 70, 2-(6-(cyclopentylamino)-4-((1R,3R)-3-methoxy-1-(4-methyl-4H-1,2,4-triazol-3-yl)cyclobutyl)pyridin-2-yl)-6-(((1-methylcyclobutyl)amino)methyl)-4-(trifluoromethyl)isoindolin-1-one]	20×	11 nM	17 nM	(9.3x)	220 nM	158 nM		
Cn1cnnc1[C@@H](c1cccc(N2Cc3c(cc(CNC4(C)CCC4)cc3C(F)(F)F)C2=O)c1)C1CCCC1 [Compound 256, (R)-2-(3-(cyclopentyl(4-methyl-4H-1,2,4-triazol-3-yl)methyl)phenyl)-6-(((1-methylcyclobutyl)amino)methyl)-4-(trifluoromethyl)isoindolin-1-one]	14×	180 nM	210 nM	6.5x	2500 nM	1400 nM		
Cn1cnnc1C1(c2cc(NC3CCCC3)nc(N3Cc4c(cc(CNC5(C)CCC5)cc4C(F)(F)F)C3=O)c2)CC2(COC2)C1 [Compound 188, 2-(6-(cyclopentylamino)-4-(6-(4-methyl-4H-1,2,4-triazol-3-yl)-2-oxaspiro[3.3]heptna-6-yl)pyridin-2-yl)-6-(((1-methylcyclobutyl)amino)methyl)-4-(trifluoromethyl)isoindolin-1-one]	22×	4.7 nM	16 nM	11x	100 nM	180 nM		
CO[C@H]1C[C@](c2cccc(N3Cc4c(cc(CNC5CC6(C5)CC6(F)F)cc4C(F)(F)F)C3=O)c2)(c2nncn2C)C1 (stereo partly drawn) [Compound 426, 6-(((1,1-difluorospiro[2.3]hexan-5-yl)amino)methyl)-2-(3-((1r,3r)-3-methoxy-1-(4-methyl-4H-1,2,4-triazol-3-yl)cyclobutyl)phenyl)-4-(trifluoromethyl)isoindolin-1-one]	15×	6.6 nM			9.9 nM	60 nM	13 nM	4.6x
CC1=C[C@@](c2cc(NC3CCC3)nc(N3Cc4c(cc(CN5CCN(C)C[C@@H]5C(C)C)cc4C(F)(F)F)C3=O)c2)(c2nncn2C)C1 (single isomer, unassigned) [Compound 71]	9.1×	3.7 nM	14 nM	(1.2x)	34 nM	16.8 nM		
Cn1cnnc1C1(c2cccc(N3Cc4c(cc(CNC5(C)CCC5)cc4C(F)(F)F)C3=O)c2)CS(=O)(=O)C1 [Compound 328, 2-(3-(3-(4-methyl-4H-1,2,4-triazol-3-yl)-1,1-dioxidothietan-3-yl)phenyl)-6-(((1-methylcyclobutyl)amino)methyl)-4-(trifluoromethyl)isoindolin-1-one]	4.8×	67 nM	100 nM	3.8x	320 nM	380 nM		
C[C@@H]1C[C@](c2cccc(N3Cc4c(cc(CNC5(C)CCC5)cc4C(F)(F)F)C3=O)c2)(c2nncn2C)O1 [Compound 126, 2-(3-((2S,4R)-4-methyl-2-(4-methyl-4H-1,2,4-triazol-3-yl)oxetan-2-yl)phenyl)-6-(((1-methylcyclobutyl)amino)methyl)-4-(trifluoromethyl)isoindolin-1-one]	6.0×	12 nM	75 nM	3.4 x	130 nM	250 nM		
COC1CC([C@H](c2cccc(N3Cc4c(cc(CNC5(C)CCC5)cc4C(F)(F)F)C3=O)c2)c2nncn2C)C1 (single isomer, unassigned) [Compound 131]	16×	280 nM	740 nM	7.4x	4500 nM	5600 nM		
CO[C@H]1C[C@](c2cc(NC3CCCC3)cc(N3Cc4c(cc(CNC5(C)CCC5)cc4C(F)(F)F)C3=O)c2)(c2nncn2C)C1 [Compound 209, 2-(3-(cyclopentylamino)-5-((1r,3r)-3-methoxy-1-(4-methyl-4H-1,2,4-triazol-3-yl)cyclobutyl)phenyl)-6-(((1-methylcyclobutyl)amino)methyl)-4-(trifluoromethyl)isoindolin-1-one]	12×	17 nM	44 nM	7.2x	200 nM	320 nM		
Cn1cnnc1[C@]1(c2cccc(N3Cc4c(cc(CNC5(C)CCC5)cc4C(F)(F)F)C3=O)c2)C[C@@](C)(O)C1 [Compound 27, 2-(3-((1r,3r)-3-hydroxy-3-methyl-1-(4-methyl-4H-1,2,4-triazol-3-yl)cyclobutyl)phenyl)-6-(((1-methylcyclobutyl)amino)methyl)-4-(trifluoromethyl)isoindolin-1-one]	7.2×	60 nM	170 nM	(3.0x)	430 nM	510 nM		
CO[C@H]1C[C@](c2cccc(N3Cc4c(cc(CNC5CC6CC6C5)cc4C(F)(F)F)C3=O)c2)(c2nncn2C)C1 (stereo partly drawn) [Compound 498, 6-((bicyclo[3.1.0]hexan-3-ylamino)methyl)-2-(3-((1r,3r)-3-methoxy-1-(4-methyl-4H-1,2,4-triazol-3-yl)cyclobutyl)phenyl)-4-(trifluoromethyl)isoindolin-1-one]	16×	0.8 nM			13 nM	15 nM	4.1 nM	3.6x
CO[C@H]1C[C@@](c2cccc(N3Cc4c(cc([C@@H](C)NC5(C)CCC5)cc4C(F)(F)F)C3=O)c2)(c2nncn2C)C1 (single isomer, unassigned) [Compound 175]	6.4×	0.95 nM	9.6 nM	1.0x	6 nM	9.7 nM		
CO[C@H]1C[C@@H]([C@@H](c2cccc(N3Cc4c(cc(CN5CCN(C)C[C@@H]5C(C)C)cc4C(F)(F)F)C3=O)c2)c2nncn2C)C1 (stereo in doubt) [Compound 13, 6-(((S)-2-isopropyl-4-methylpiperazin-1-yl)methyl)-2-(3-((S)-((1 S,3S)-3-methoxycyclobutyl)(4-methyl-4H-1,2,4-triazol-3-yl)methyl)phenyl)-4-(trifluoromethyl)isoindolin-1-one]	4.1×	120 nM	200 nM	(2.7x)	490 nM	540 nM		
C[C@@H](NC1(C)CCC1)c1cc2c(c(C(F)(F)F)c1)CN(c1cccc(C3(c4nncn4C)CC(F)(F)C3)c1)C2=O (single isomer, unassigned) [Compound 174]	2.8×	0.4 nM	8.5 nM	0.80x	1.1 nM	6.8 nM		
